Each structure is given as a SMILES string. Read-outs that look alike come from different tables or passages of the source. Non-standard residues stand in square brackets, D forms with d. Residues, ends and D or L forms follow the SMILES beside them. ξ: configuration not given here. *: point of attachment. Malonyl(2,2-Me2,histaminyl) = CC(C)(C(=O)NCCc1cnc[nH]1)C(=O)*; Ala(1H-tetrazol-5-yl) = N[C@@H](Cc1nnn[nH]1)C(=O)O; ξαMePhe(2-F) = CC(N)(Cc1ccccc1F)C(=O)O; Nle = CCCC[C@H](N)C(=O)O; Aib = CC(C)(N)C(=O)O; Alloc = C=CCOC(=O)*

Here are results for five compounds from patent US20230295260A1, “GLP RECEPTOR AGONISTS” (HEPTARES THERAPEUTICS LIMITED, priority 2020, published 2023).

Test [1] has as its target T1, human GLP1 receptor (Homo sapiens, UniProt P43220).
T1 construct: expressed in transfected cells; host or cells: HEK cells, BacMam virus transduction
Nature of the test: cAMP accumulation assay (HTRF), functional agonism of human GLP1 receptor in HEK cells. The format is cell-based. As to conditions: for EC50: read-out: Human GLP-1R agonist cAMP pEC50 (converted).
Experimental: (§1) The functional activity of the peptides were assessed using a HTRF cAMP assay. pEC50 values are quoted.
(§2) cAMP production upon agonist stimulation of human GLP2 or GLP1 receptor was assessed utilizing HiRange cAMP kit (Cisbio). In brief, HEK cells were infected with either human GLP2 or GLP1 receptor BacMam virus for 24 hours and frozen for later use in the assay. […] Cells were prepared in the assay buffer (HBSS (Lonza) supplemented with 0.5 mM IBMX (Tocris)). After 45 min incubation at 37° C., the reaction was stopped by addition of the HTRF detection reagents in the lysis buffer provided in the kit.

The target of test [2] is T2, human GLP2 receptor (Homo sapiens, UniProt O95838).
T2 sequence (O95838 1-553): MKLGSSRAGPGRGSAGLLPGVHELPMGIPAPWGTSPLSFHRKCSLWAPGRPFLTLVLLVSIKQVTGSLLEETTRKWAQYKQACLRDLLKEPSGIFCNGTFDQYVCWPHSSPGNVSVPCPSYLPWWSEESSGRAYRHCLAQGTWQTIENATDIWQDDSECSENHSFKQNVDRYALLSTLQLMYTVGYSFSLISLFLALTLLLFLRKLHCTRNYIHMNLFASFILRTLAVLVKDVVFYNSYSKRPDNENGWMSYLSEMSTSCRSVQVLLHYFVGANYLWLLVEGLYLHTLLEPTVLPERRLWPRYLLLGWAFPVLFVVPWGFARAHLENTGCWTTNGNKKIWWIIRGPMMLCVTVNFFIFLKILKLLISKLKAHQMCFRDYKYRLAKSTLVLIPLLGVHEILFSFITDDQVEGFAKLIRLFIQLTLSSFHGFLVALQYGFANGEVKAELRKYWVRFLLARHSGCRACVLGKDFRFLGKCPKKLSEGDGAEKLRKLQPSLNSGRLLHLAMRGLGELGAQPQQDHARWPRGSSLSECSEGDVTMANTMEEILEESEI
Nature of the test: cAMP accumulation assay (HTRF), functional agonism of human GLP2 receptor in HEK cells.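 On all read-outs here: HEK cells transduced via BacMam to express human GLP2 receptor, agonist-stimulated cAMP measured by HTRF after 45 min at 37 °C in HBSS with 0.5 mM IBMX.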 As to conditions: for Emax: HEK293, read-out: Human GLP-2R agonist cAMP Emax. (cAMP levels reflect the balance of adenylyl cyclase and phosphodiesterase activity.)
Experimental: as §1, §2

Where [3] appears, read: HEK293, HEK cells, human GLP1 receptor BacMam, 45 min 37° C., read-out: Human GLP-1R agonist cAMP Emax.
[4] abbreviates: HEK293, read-out: Human GLP-1R agonist cAMP Emax.
Where [5] appears, read: HEK cells, human GLP1 receptor BacMam, 45 min 37° C.

T1 sequence (P43220 24-463): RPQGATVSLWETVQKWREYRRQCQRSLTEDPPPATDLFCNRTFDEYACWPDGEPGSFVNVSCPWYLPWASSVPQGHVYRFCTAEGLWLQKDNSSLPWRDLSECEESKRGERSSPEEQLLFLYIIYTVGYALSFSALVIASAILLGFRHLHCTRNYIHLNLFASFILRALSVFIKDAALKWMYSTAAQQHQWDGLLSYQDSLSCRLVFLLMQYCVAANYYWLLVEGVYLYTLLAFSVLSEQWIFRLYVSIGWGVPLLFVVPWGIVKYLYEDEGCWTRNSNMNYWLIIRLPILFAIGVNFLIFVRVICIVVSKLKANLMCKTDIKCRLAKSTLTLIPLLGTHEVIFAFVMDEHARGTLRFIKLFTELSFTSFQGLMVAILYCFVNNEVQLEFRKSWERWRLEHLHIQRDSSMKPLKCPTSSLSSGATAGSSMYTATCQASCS

As to `C=CCOC(=O)NCCCC[C@H](NC(=O)[C@H](CC(C)C)NC(=O)[C@H](CC(=O)O)NC(=O)[C@H](CC(C)C)NC(=O)[C@@H](NC(=O)[C@@H](NC(=O)[C@@H](Cc1ccccc1)NC(=O)[C@H](CCCC)NC(=O)[C@H](CCC(=O)O)NC(=O)[C@H](CC(=O)O)NC(=O)[C@H](CO)NC(=O)C(C)(Cc1ccccc1F)NC(=O)[C@H](CO)NC(=O)CNC(=O)[C@H](CC(=O)O)NC(=O)C(C)(C)C(=O)NCCc1c[nH]cn1)[C@@H](C)O)[C@@H](C)CC)C(=O)N[C@@H](C)C(=O)N[C@@H](C)C(=O)N[C@@H](CCCCN)C(=O)N[C@@H](CC(=O)O)C(=O)N[C@@H](Cc1ccccc1)C(=O)N[C@H](C(=O)N[C@@H](CC(N)=O)C(=O)N[C@@H](Cc1c[nH]c2ccccc12)C(=O)N[C@@H](CC(C)C)C(=O)N[C@H](C(=O)N[C@@H](CCC(N)=O)C(=O)N[C@H](C(=O)N[C@@H](CCCCN)C(=O)N[C@H](C(=O)N[C@H](C(=O)N[C@@H](CC(=O)O)C(N)=O)[C@@H](C)O)[C@@H](C)CC)[C@@H](C)O)[C@@H](C)CC)[C@@H](C)CC` (some centres unmarked) [Example 4] ({Malonyl(2,2-Me2,histaminyl)}-DGS[ξαMePhe(2-F)]SDE[Nle][dF]TILDLK(Alloc)AAKDFINWLIQTKITD-NH2; C-terminus assumed), the Emax (commonly the maximal effect, on the per cent scale that the assay sets) came out at 98.1% in test [1] (setting [3]) and 99.3% in test [2].
In the case of `C=CCOC(=O)NCCCC[C@H](NC(=O)[C@H](CC(C)C)NC(=O)[C@H](CC(=O)O)NC(=O)[C@H](CC(C)C)NC(=O)C(C)(C)NC(=O)[C@@H](NC(=O)[C@@H](Cc1ccccc1)NC(=O)[C@H](CCCC)NC(=O)[C@H](CCC(=O)O)NC(=O)[C@H](CC(=O)O)NC(=O)[C@H](CO)NC(=O)[C@H](Cc1ccccc1)NC(=O)[C@H](CO)NC(=O)CNC(=O)[C@H](Cc1nn[nH]n1)NC(=O)C(C)(C)C(=O)NCCc1c[nH]cn1)[C@@H](C)O)C(=O)N[C@@H](C)C(=O)N[C@@H](C)C(=O)NC(C)(C)C(=O)N[C@@H](CC(=O)O)C(=O)N[C@@H](Cc1ccccc1)C(=O)N[C@H](C(=O)N[C@@H](CC(N)=O)C(=O)N[C@@H](Cc1c[nH]c2ccccc12)C(=O)N[C@@H](CC(C)C)C(=O)N[C@H](C(=O)N[C@@H](CCC(N)=O)C(=O)N[C@H](C(=O)N[C@@H](CCCCN)C(=O)N[C@H](C(=O)N[C@H](C(=O)N[C@@H](Cc1ccccc1)C(N)=O)[C@@H](C)O)[C@@H](C)CC)[C@@H](C)O)[C@@H](C)CC)[C@@H](C)CC` [Example 5] ({Malonyl(2,2-Me2,histaminyl)}-[Ala(1H-tetrazol-5-yl)]GSFSDE[Nle][dF]T[Aib]LDLK(Alloc)AA[Aib]DFINWLIQTKITF-NH2), the results for the Emax in test [1] (setting [4]) and in test [2] were 93.6% and 103%, respectively.
Regarding `C=CCOC(=O)NCCCC[C@H](NC(=O)[C@H](C)NC(=O)[C@H](C)NC(=O)[C@H](CCCCNC(=O)OCC=C)NC(=O)[C@H](CC(C)C)NC(=O)[C@H](CC(=O)O)NC(=O)[C@H](CC(C)C)NC(=O)C(C)(C)NC(=O)[C@@H](NC(=O)[C@@H](Cc1ccccc1)NC(=O)[C@H](CCCC)NC(=O)[C@H](CCC(=O)O)NC(=O)[C@H](CC(=O)O)NC(=O)[C@H](CO)NC(=O)[C@H](Cc1ccccc1)NC(=O)[C@H](CO)NC(=O)CNC(=O)[C@H](Cc1nn[nH]n1)NC(=O)C(C)(C)C(=O)NCCc1c[nH]cn1)[C@@H](C)O)C(=O)N[C@@H](CC(=O)O)C(=O)N[C@@H](Cc1ccccc1)C(=O)N[C@H](C(=O)N[C@@H](CC(N)=O)C(=O)N[C@@H](Cc1c[nH]c2ccccc12)C(=O)N[C@@H](CC(C)C)C(=O)N[C@H](C(=O)N[C@@H](CCC(N)=O)C(=O)N[C@H](C(=O)N[C@@H](CCCCN)C(=O)N[C@H](C(=O)N[C@H](C(=O)N[C@@H](Cc1ccccc1)C(N)=O)[C@@H](C)O)[C@@H](C)CC)[C@@H](C)O)[C@@H](C)CC)[C@@H](C)CC` [Example 6] ({Malonyl(2,2-Me2,histaminyl)}-[Ala(1H-tetrazol-5-yl)]GSFSDE[Nle][dF]T[Aib]LDLK(Alloc)AAK(Alloc)DFINWLIQTKITF-NH2), the values for the Emax in test [1] (setting [3]) and in test [2] were 96.4% and 103%, respectively. In addition, the results for the EC50 in test [1] (setting [5]) and in test [2] were 10 nM and 0.0316 nM, respectively.
With `C=CCOC(=O)NCCCC[C@H](NC(=O)[C@H](CC(C)C)NC(=O)[C@H](CC(=O)O)NC(=O)[C@H](CC(C)C)NC(=O)C(C)(C)NC(=O)[C@@H](NC(=O)[C@@H](Cc1ccccc1)NC(=O)[C@H](CCCC)NC(=O)[C@H](CCC(=O)O)NC(=O)[C@H](CC(=O)O)NC(=O)[C@H](CO)NC(=O)[C@H](Cc1ccccc1)NC(=O)[C@H](CO)NC(=O)[C@@H](C)NC(=O)[C@H](Cc1nn[nH]n1)NC(=O)C(C)(C)C(=O)NCCc1c[nH]cn1)[C@@H](C)O)C(=O)N[C@@H](C)C(=O)N[C@@H](C)C(=O)NC(C)(C)C(=O)N[C@@H](CC(=O)O)C(=O)N[C@@H](Cc1ccccc1)C(=O)N[C@H](C(=O)N[C@@H](CC(N)=O)C(=O)N[C@@H](Cc1c[nH]c2ccccc12)C(=O)N[C@@H](CC(C)C)C(=O)N[C@H](C(=O)N[C@@H](CCC(N)=O)C(=O)N[C@H](C(=O)N[C@@H](CCCCN)C(=O)N[C@H](C(=O)N[C@H](C(=O)N[C@@H](Cc1ccccc1)C(N)=O)[C@@H](C)O)[C@@H](C)CC)[C@@H](C)O)[C@@H](C)CC)[C@@H](C)CC` [Example 7] ({Malonyl(2,2-Me2,histaminyl)}-[Ala(1H-tetrazol-5-yl)][dA]SFSDE[Nle][dF]T[Aib]LDLK(Alloc)AA[Aib]DFINWLIQTKITF-NH2), the Emax in test [1] (setting [3]) was determined as 62.2%; in test [2], 102%. Also, the results for the EC50 in test [1] (setting [5]) and in test [2] were 39.8 nM and 0.01 nM, respectively.
For `C=CCOC(=O)NCCCC[C@H](NC(=O)[C@H](C)NC(=O)C(C)(C)NC(=O)[C@H](CCCCNC(=O)OCC=C)NC(=O)[C@H](CC(N)=O)NC(=O)[C@H](CC(=O)O)NC(=O)[C@H](CC(C)C)NC(=O)C(C)(C)NC(=O)[C@@H](NC(=O)[C@H](CC(N)=O)NC(=O)[C@H](CCCC)NC(=O)[C@H](CCC(=O)O)NC(=O)[C@H](CC(=O)O)NC(=O)[C@H](CO)NC(=O)[C@H](Cc1ccccc1)NC(=O)[C@H](CO)NC(=O)[C@@H](C)NC(=O)[C@H](Cc1nn[nH]n1)NC(=O)C(C)(C)C(=O)NCCc1c[nH]cn1)[C@@H](C)O)C(=O)N[C@@H](CC(=O)O)C(=O)N[C@@H](Cc1ccccc1)C(=O)N[C@H](C(=O)N[C@@H](CC(N)=O)C(=O)N[C@@H](Cc1c[nH]c2ccccc12)C(=O)N[C@@H](CC(C)C)C(=O)N[C@H](C(=O)N[C@@H](CCC(N)=O)C(=O)N[C@H](C(=O)N[C@@H](CCCNC(=N)N)C(=O)N[C@H](C(=O)N[C@H](C(=O)N[C@@H](Cc1ccccc1)C(N)=O)[C@@H](C)O)[C@@H](C)CC)[C@@H](C)O)[C@@H](C)CC)[C@@H](C)CC` [Example 8] ({Malonyl(2,2-Me2,histaminyl)}-[Ala(1H-tetrazol-5-yl)][dA]SFSDE[Nle]NT[Aib]LDNK(Alloc)[Aib]AK(Alloc)DFINWLIQTRITF-NH2), the Emax in test [1] (setting [4]) was determined as 93.3%; in test [2] it was 104%.
